# System: HMT3522 T4-2 cells
# Assay: Affymetrix U133A 2.0 gene expression profiling of T4-2 N-CoR2 cells vs T4-2 vector cells grown on rBM;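 note: total RNA converted to biotin-labelled cRNA, hybridized to arrays and confocally scanned, probe set intensities computed by GC-RMA, genes kept if flagged present in at least 2 of 8 samples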
# Format: cell-based, human
# Settings: T4-2 N-CoR2 cells on rBM, 6 days
# Method: HMT3522 T4-2 cells were derived from an epidermal growth factor (EGF)-dependent breast epithelial HMT3522 S-1 cells and an EGF-independent HMT3522 S-2 cells that spontaneously became malignant when injected into nude mice. HMT3522 T4-2 cells were propagated as monolayers on type I collagen-coated plastic surface in chemically defined medium consisting of DMEM:F12 medium (Invitrogen GIBCO), containing 250 ng/ml insulin (Boehringer Mannheim), 10 μg/ml transferrin (Sigma, St. Louis, Mo.), 2.6 ng/ml sodium splenetic (Collaborative Research), 10^−10 M estradiol (Sigma), 1.4×10^−6 M hydrocortisone (Collaborative Research), and 5 μg/ml prolactin (Sigma), as described in J. Cell Biol. 137:231-245 (1997).
# Amphotropic retrovirus was produced in modified 293 cells or in Phoenix ampho cells (provided by Professor G. Nolan, Stanford Medical Center) with packaging vectors pCgp and pVSVG to boost viral titer. […] Sorted cells were expanded again in the presence of tetracycline.
# To increase the yield of RNA for transcriptional profiling experiments, we grew 2×10^5 cells on top of rBM in a 60-mm tissue culture dish. As described, cells grown on top of rBM formed 3D cellular aggregates similar to those embedded in rBM. […] The cultures were maintained for 6 days before the collection of RNA samples.
# Total RNA was extracted from monolayer culture or 3D culture by a modified TR1 reagent procedure as described (Biotechniques 19:942-945 (1995)) and purified using an RNeasy Mini Kit (Qiagen). Gene expression analysis was performed on an Affymetrix Human Genome U133A 2.0 GeneChip platform containing 22,283 probes according to the manufacturer's protocol (Affymetrix). Twenty micrograms of total RNA from each sample was processed to produce biotinylated cRNA targets. After hybridization, washing and staining arrays were scanned using a confocal scanner (Affymetrix). The hybridization intensity data was processed using the GeneChip Operating software (Affymetrix). Affymetrix .cel files (probe intensity files) were processed with ArrayAssist Lite (v3.4, Stratagene). The files were imported and processed with the GC-RMA algorithm to yield probe set intensities and additionally, Affymetrix Preset, Absent, Marginal flags were computed. These values were exported in .chp files, which were subsequently imported into the Partek Genomics Suite software (v6.2, Partek). The genes were filtered based on the Affymetrix P/A/M flags to retain only those genes that were present in at least 2 of the 8 samples.
substance,measurement,value
N-CoR2,MEAN INTENSITY (N) 33304_at ISG20,482.12
same,MEAN INTENSITY (N) 38037_at HBEGF,361.24
same,MEAN INTENSITY (N) 38043_at FAM3A,68.61
same,MEAN INTENSITY (N) 53991_at DENND2A,20.60
same,MEAN INTENSITY (N) 200696_s_at GSN,914.82
same,MEAN INTENSITY (N) 200821_at LAMP2,347.91
same,MEAN INTENSITY (N) 200914_x_at KTN1,343.43
same,MEAN INTENSITY (N) 201007_at HADHB,7136.54
same,MEAN INTENSITY (N) 201132_at HNRPH2,143.04
same,MEAN INTENSITY (N) 201215_at PLS3,411.68
same,MEAN INTENSITY (N) 201472_at VBP1,161.81
same,MEAN INTENSITY (N) 201540_at FHL1,1059.88
same,MEAN INTENSITY (N) 201661_s_at ACSL3,24.61
same,MEAN INTENSITY (N) 201864_at GDI1,358.31
same,MEAN INTENSITY (N) 201865_x_at NR3C1,332.55
same,MEAN INTENSITY (N) 201887_at IL13RA1,93.97
same,MEAN INTENSITY (N) 201917_s_at SLC25A36,28.72
same,MEAN INTENSITY (N) 201996_s_at SPEN,72.47
same,MEAN INTENSITY (N) 202169_s_at AASDIIPPT,25.30
same,MEAN INTENSITY (N) 202277_at SPTLC1,110.99
same,MEAN INTENSITY (N) 202351_at ITGAV,510.51
same,MEAN INTENSITY (N) 202371_at TCEAL4,269.43
same,MEAN INTENSITY (N) 202376_at SERPINA3,196.67
same,MEAN INTENSITY (N) 202378_s_at LEPROT,228.55
same,MEAN INTENSITY (N) 202411_at IFI27,155.11
same,MEAN INTENSITY (N) 202439_s_at IDS,270.52
same,MEAN INTENSITY (N) 202602_s_at HTATSF1,79.70
same,MEAN INTENSITY (N) 202829_s_at SYBL1,38.13
same,MEAN INTENSITY (N) 202923_s_at GCLC,167.13
same,MEAN INTENSITY (N) 203042_at LAMP2,638.66
same,MEAN INTENSITY (N) 203156_at AKAP11,21.24
same,MEAN INTENSITY (N) 203186_s_at S100A4,227.62
same,MEAN INTENSITY (N) 203303_at DYNLT3,44.35
same,MEAN INTENSITY (N) 203453_at SCNN1A,142.26
same,MEAN INTENSITY (N) 203780_at EVA1,133.29
same,MEAN INTENSITY (N) 203821_at HBEGF,977.38
same,MEAN INTENSITY (N) 203917_at CXADR,71.25
same,MEAN INTENSITY (N) 204020_at PURA,200.32
same,MEAN INTENSITY (N) 204097_s_at RBMX2,21.99
same,MEAN INTENSITY (N) 204343_at ABCA3,38.38
same,MEAN INTENSITY (N) 204351_at S100P,180.28
same,MEAN INTENSITY (N) 204533_at CXCL10,24.04
same,MEAN INTENSITY (N) 204584_at L1CAM,327.45
same,MEAN INTENSITY (N) 204602_at DKK1,259.47
same,MEAN INTENSITY (N) 204881_s_at UGCG,120.86
same,MEAN INTENSITY (N) 204976_s_at AMMECR1,36.28
same,MEAN INTENSITY (N) 204981_at SLC22A18,205.14
same,MEAN INTENSITY (N) 205097_at SLC26A2,85.76
same,MEAN INTENSITY (N) 205128_x_at PTGS1,125.00
same,MEAN INTENSITY (N) 205220_at GPR109B,645.95
same,MEAN INTENSITY (N) 205315_s_at SNTB2,87.78
same,MEAN INTENSITY (N) 205363_at BBOX1,120.76
same,MEAN INTENSITY (N) 205428_s_at CALB2,143.13
same,MEAN INTENSITY (N) 205569_at LAMP3,64.51
same,MEAN INTENSITY (N) 205595_at DSG3,177.64
same,MEAN INTENSITY (N) 205623_at ALDH3A1,77.90
same,MEAN INTENSITY (N) 205709_s_at CDS1,42.93
same,MEAN INTENSITY (N) 205767_at EREG,183.71
same,MEAN INTENSITY (N) 205809_s_at WASL,77.44
same,MEAN INTENSITY (N) 205900_at KRT1,95.82
same,MEAN INTENSITY (N) 206295_at IL18,188.27
same,MEAN INTENSITY (N) 206342_x_at IDS,267.58
same,MEAN INTENSITY (N) 206645_s_at NR0B1,107.59
same,MEAN INTENSITY (N) 207719_x_at CEP170,21.69
same,MEAN INTENSITY (N) 207941_s_at RNPC2,78.71
same,MEAN INTENSITY (N) 208241_at NRG1,18.19
same,MEAN INTENSITY (N) 209022_at STAG2,24.13
same,MEAN INTENSITY (N) 209028_s_at ABI1,109.59
same,MEAN INTENSITY (N) 209194_at CETN2,187.44
same,MEAN INTENSITY (N) 209289_at NFIB,64.90
same,MEAN INTENSITY (N) 209726_at CA11,105.08
same,MEAN INTENSITY (N) 209792_s_at KLK10,505.96
same,MEAN INTENSITY (N) 210367_s_at PTGES,246.35
same,MEAN INTENSITY (N) 210387_at HIST1H2BG,579.17
same,MEAN INTENSITY (N) 211122_s_at CXCL11,12.87
same,MEAN INTENSITY (N) 211343_s_at COL13A1,88.75
same,MEAN INTENSITY (N) 211612_s_at IL13RA1,104.96
same,MEAN INTENSITY (N) 211671_s_at NR3C1,263.10
same,MEAN INTENSITY (N) 212007_at UBXD2,117.00
same,MEAN INTENSITY (N) 212221_x_at IDS,571.11
same,MEAN INTENSITY (N) 212223_at IDS,186.65
same,MEAN INTENSITY (N) 212414_s_at SEPT6,68.28
same,MEAN INTENSITY (N) 212415_at SEPT6,11.03
same,MEAN INTENSITY (N) 212510_at GPD1L,22.53
same,MEAN INTENSITY (N) 212531_at LCN2,420.45
same,MEAN INTENSITY (N) 212605_s_at,41.36
same,MEAN INTENSITY (N) 212616_at CHD9,17.34
same,MEAN INTENSITY (N) 212622_at TMEM41B,26.02
same,MEAN INTENSITY (N) 212640_at PTPLB,459.88
same,MEAN INTENSITY (N) 213016_at,34.12
same,MEAN INTENSITY (N) 213083_at SLC35D2,234.84
same,MEAN INTENSITY (N) 213135_at TIAM1,24.42
same,MEAN INTENSITY (N) 213229_at DICER1,464.53
same,MEAN INTENSITY (N) 213294_at,18.29
same,MEAN INTENSITY (N) 213593_s_at TRA2A,34.25
same,MEAN INTENSITY (N) 213729_at PRPF40A,15.54
same,MEAN INTENSITY (N) 214022_s_at IFITM1,4135.74
same,MEAN INTENSITY (N) 214112_s_at CXorf40A,479.14
same,MEAN INTENSITY (N) 214718_at GATAD1,33.09
same,MEAN INTENSITY (N) 214722_at NOTCH2NL,159.38
same,MEAN INTENSITY (N) 215206_at EXT1,106.70
same,MEAN INTENSITY (N) 215245_x_at FMR1,78.43
same,MEAN INTENSITY (N) 215813_s_at PTGS1,76.88
same,MEAN INTENSITY (N) 216095_x_at MTMR1,318.26
same,MEAN INTENSITY (N) 216942_s_at CD58,34.65
same,MEAN INTENSITY (N) 217388_s_at KYNU,634.02
same,MEAN INTENSITY (N) 217813_s_at SPIN,59.32
same,MEAN INTENSITY (N) 217947_at CMTM6,498.31
same,MEAN INTENSITY (N) 217948_at,706.40
same,MEAN INTENSITY (N) 217975_at WBP5,441.28
same,MEAN INTENSITY (N) 218053_at PRPF40A,132.43
same,MEAN INTENSITY (N) 218085_at CHMP5,84.03
same,MEAN INTENSITY (N) 218086_at NPDC1,330.55
same,MEAN INTENSITY (N) 218163_at MCTS1,521.74
same,MEAN INTENSITY (N) 218237_s_at SLC38A1,608.07
same,MEAN INTENSITY (N) 218668_s_at RAP2C,54.25
same,MEAN INTENSITY (N) 218986_s_at FLJ20035,29.34
same,MEAN INTENSITY (N) 219001_s_at WDR32,26.25
same,MEAN INTENSITY (N) 219010_at C1orf106,585.64
same,MEAN INTENSITY (N) 219045_at RHOF,540.25
same,MEAN INTENSITY (N) 219351_at TRAPPC2,71.62
same,MEAN INTENSITY (N) 219356_s_at CHMP5,242.88
same,MEAN INTENSITY (N) 219956_at GALNT6,147.85
same,MEAN INTENSITY (N) 219995_s_at FLJ13841,795.33
same,MEAN INTENSITY (N) 221553_at RP11-217II1.1,90.64
same,MEAN INTENSITY (N) 221581_s_at LAT2,163.24
same,MEAN INTENSITY (N) 221766_s_at FAM46A,25.10
same,MEAN INTENSITY (N) 221829_s_at TNPO1,213.54
same,MEAN INTENSITY (N) 221841_s_at KLF4,264.55
same,MEAN INTENSITY (N) 221844_x_at,96.74
same,MEAN INTENSITY (N) 222242_s_at KLK5,26.38
same,MEAN INTENSITY (N) 222266_at C19orf2,25.69
